The source of these data is paper PMC7600403, “Development of an Oil-in-Water Self-Emulsifying Microemulsion for Cutaneous Delivery of Rose Bengal: Investigation of Anti-Melanoma Properties” (Pharmaceutics, 2020).

Structures are written as SMILES.

Series [1] relates to WM164. The series is described as follows: MTT cell viability assay of SEMEs and excipients (60 min). In kind it is cell-based, human. To be noted: WM164, 60 min incubation; mean (95% CI), n = 5; >Max Conc. = not reaching the sensitive range for the applied concentrations. How it is done:
(§1) Human melanoma cell lines (WM164, WM1366, and D24), spontaneously immortalized normal human keratinocytes (HaCaT), and primary skin fibroblast cells were kindly provided by A/Prof. Helmut Schaider’s laboratory (University of Queensland Diamantina Institute). The cells were grown in RPMI medium (+ L-glutamine) supplemented with 5% (v/v) FBS and 2% penicillin/streptomycin—except for the fibroblast cells which were cultured in DMEM. Cells were routinely grown in culture flasks and maintained at 37 °C in a humidified 5% CO2 atmosphere. The culture media was replaced with fresh media every two to three days. Cells were detached using trypsin–EDTA when they reached approximately 80% confluence to seed or subculture. A low passage number (6–12) of primary fibroblast was used during the experiments, and regular microbial contamination testing was done.
(§2) To exclude any toxic effect of the blank SEMEs and their constituents on human skin cells, an MTT cell viability test was performed based on the original protocol. In this assay, the yellow tetrazolium salt MTT is reduced to insoluble purple formazan crystals by metabolically live cells.
(§3) After 60 min incubation of treated cells, the excipient-containing medium was removed, and 100 μL of MTT in PBS (5 mg/mL) diluted 1:10 in medium was then added. Plates were further incubated in the dark for 2–3 h, after which time the wells were emptied and the purple formazan was dissolved by addition of 200 μL of DMSO to each well. Plates were located in a shaker for 5 min at room temperature and the absorbance of the solutions in the wells was measured at 570 nm using a microplate reader (Multiskan™ FC Microplate Photometer). The impact of each treatment was determined as the percentage of reduced tetrazolium salt against the control cells (untreated cells with medium only).
(§4) The cytotoxicity at each excipient concentration was expressed as a percentage of viability against the untreated control wells (the mean optical density of untreated cells was set at 100% viability) to construct a dose-dependent cytotoxicity plot.
(§5) The percentage viability was calculated as follows (Equation (1)):(1) % Viability= Mean absorbance of treated wells/Mean absorbance of control wellno excipients ×100.
(§6) The cytotoxicity of the excipients and formulations (treatments) was expressed as an IC50 value (concentration causing 50% death of the cell population). The IC50 value for each treatment concentration was calculated from the dose–response curves plotted in GraphPad Prism 7 (GraphPad Software Inc. California, USA) with log (treatment concentration) on the x-axis and percentage survival on the y-axis. The IC50 value was obtained by fitting the dose–response curve with a nonlinear regression curve (Dose-response-inhibition) on GraphPad Prism 7. […] All IC50 values were expressed as v/v (%).

Series [2] deals with WM1366. The description is as above. In kind it is cell-based, human. The following applies: WM1366, 60 min incubation; mean (95% CI), n = 5; >Max Conc. = not reaching the sensitive range. How it is done: as §1, §2, §3, §4, §5, §6
For series [3], the system named is HaCaT. The series is described as above. To be noted: 60 min incubation, mean (95% CI), n = 5, >Max Conc. = not reaching the sensitive range. It is filed as cell-based, human. How it is done: as §1, §2, §3, §4, §5, §6
Series [4] concerns WM164. The series can be described thus: Cell cycle analysis by flow cytometry (PI staining, sub G0G1). In kind it is cell-based, human. To be noted: WM164, 50 µM RB, 24-h treatment; untreated 3.94. How it is done:
(§7) Apoptotic cells were detected using Propidium Iodide (PI) staining of treated cells followed by flow cytometry to detect the sub-G1 peak. It has been reported that small segments of DNA caused by DNA fragmentation can be eluted following incubation in a hypotonic phosphate-citrate buffer. When stained with a quantitative DNA binding dye such as PI, cells that have lost DNA will take up less stain and will appear to the left of the G1 peak.
(§8) Briefly, melanoma cells were cultured overnight in a 6-well plate to subconfluence and treated with RB (50 µM) for 24 h. Floating and adherent cells were harvested by a trypsin-based method and fixed by ice cold 70% ethanol. Cells were incubated at 4 °C for at least 24 h in the dark and stained using 70 μM Propidium Iodide in 500 µl of a 38-mM hypotonic tri-sodium citrate buffer supplemented with 5 μg/mL RNase A before flow cytometric analysis using a FACScan. […]
(§9) 6. Cell Cycle Analysis by Flow Cytometry
(§10) After determining that RB decreased cell viability of human skin melanoma cells in a dose-dependent manner, the mechanism of cell death was investigated by flow cytometry. As RB-induced cell death was evident upon exposure to concentrations >50 μM, the cells were treated with 50-μM RB in water, SEME+PG and SEME-PG for 24 h for cell cycle analysis. […]
(§11) increases in apoptotic cell populations when cells were treated with RB-loaded SEMEs compared to […]
(§12) selective cell death mechanism could be a key for an effective antimelanoma drug.
(§13) Figure S7. Cell cycle histograms after RB treatment. RB induces apoptosis in melanoma cells. Flow cytometry histograms of apoptosis assays by the PI method. Cells were treated with 50 μM of RB incorporated in different delivery systems for 24 h. The SubG0G1 region (shown by asterisks) indicates the presence of apoptotic cells induced in melanoma cells treated with RB incorporated in SEMEs.
(§14) The percentages of apoptotic cell populations in cancerous and non-cancerous cells are shown in […]
(§15) Table 4 of the manuscript. […]
(§16) with RB loaded in a SEME containing PG.
(In flow cytometry, cells or beads pass a laser one at a time.)

For series [5], the system named is WM1366. The description is as above. It is filed as cell-based, human. The following applies: WM1366, 50 µM RB, 24-h treatment; untreated 0.89. How it is done: as §7, §8, §9, §10, §11, §12, §13, §14, §15, §16
The test system of series [6] is D24. The description is as above. It is filed as cell-based, human. The following applies: D24, 50 µM RB, 24-h treatment; untreated 2.54. How it is done:
as §7, §8, §9, §10, §11, §12, §13, §14, §15, §16

The test system of series [7] is HaCaT. Described as above. It is filed as cell-based, human. To be noted: 50 µM RB, 24-h treatment, untreated 1.07. The procedure:
as §7, §8, §9, §10, §11, §12, §13, §14, §15, §16

In the next series the test system is Fibroblast. Described as above. To be noted: 50 µM RB, 24-h treatment, untreated 0.00. In kind it is cell-based, human. The procedure:
as §7, §8, §9, §10, §11, §12, §13, §14, §15, §16

On the set-up of series [8]: method as in PubChem. To be noted: ref PubChem; cited from earlier work.
Series [9] relates to WM164. The series can be described thus: MTT assay, inhibitory effect of RB in different delivery systems. In kind it is cell-based, human. The procedure: as §1
(§17) For the 72-h MTT assay, cells were seeded into flat bottom 96-well cell culture plates in 100 μL of complete culture medium at the initial density of […]. Cells were incubated under 5% CO2 at 37 °C for 24 h for adhering to the wells and medium was then replaced with 100 μL of fresh medium containing treatment solution at the required final concentration. Each concentration was tested in 3 replicates in 3 independent studies and control cells were exposed to the culture medium only.
(§18) The MTT cell viability assay was also used as a proxy measure for cell proliferation. Cells were plated in 96-well culture plates, at a density of 8000 cells per well in 100 μL of medium and incubated for 24 h. Treatment solutions of active drug in milli-Q® water or incorporating in SEME were prepared in cell culture medium immediately before use and added in a volume of 100 μL at desired final concentrations. After a specific period, cell viability was evaluated by MTT assay. All experiments were performed in triplicate.
as §6
(In general: Tetrazolium assays rely on reduction of a dye to a coloured formazan, in cell work by metabolically active cells.)

Series [10] concerns primary skin fibroblast cells. The description is as above. It is filed as cell-based, human. The procedure: as §1, §17, §18, §6
Series [11] concerns WM1366. The series is described as above. It is filed as cell-based, human. The procedure: as §1, §17, §18, §6
Series [12] concerns D24. Described as above. It is filed as cell-based, human. How it is done: as §1, §17, §18, §6
Series [13] concerns HaCaT. The series is described as above. In kind it is cell-based, human. How it is done: as §1, §17, §18, §6
In series [14] the test system is primary skin fibroblast cells. The series is described as follows: MTT cell viability assay of SEMEs and excipients (60 min). It is filed as cell-based, human. The following applies: 60 min incubation, mean (95% CI), n = 5, >Max Conc. = not reaching the sensitive range. How it is done:
as §1, §2, §3, §4, §5, §6

In series [15] the test system is D24. Described as above. It is filed as cell-based, human. To be noted: D24, 60 min incubation; mean (95% CI), n = 5; >Max Conc. = not reaching the sensitive range. How it is done: as §1, §2, §3, §4, §5, §6
Series [16] concerns WM164, WM1366, D24, HaCaT and fibroblast cells. The series is described as follows: MTT cell viability assay of excipients, all tested cell lines together. In kind it is cell-based, human. The following applies: 60 min MTT; maximum concentration used 10 (v/v %). How it is done:
To exclude any toxic effect of the blank SEMEs and their constituents on human skin cells, an MTT cell viability test was performed based on the original protocol. In this assay, the yellow tetrazolium salt MTT is reduced to insoluble purple formazan crystals by metabolically live cells. After 60 min incubation of treated cells, the excipient-containing medium was removed, and 100 μL of MTT in PBS (5 mg/mL) diluted 1:10 in medium was then added. Plates were further incubated in the dark for 2–3 h, after which time the wells were emptied and the purple formazan was dissolved by addition of 200 μL of DMSO to each well. Plates were located in a shaker for 5 min at room temperature and the absorbance of the solutions in the wells was measured at 570 nm using a microplate reader (Multiskan™ FC Microplate Photometer). The impact of each treatment was determined as the percentage of reduced tetrazolium salt against the control cells (untreated cells with medium only). […] The IC50 value for each treatment concentration was calculated from the dose–response curves plotted in GraphPad Prism 7 (GraphPad Software Inc. California, USA) with log (treatment concentration) on the x-axis and percentage survival on the y-axis. […] All IC50 values were expressed as v/v (%).

`CC(O)CO` (centres unmarked) [PG, propylene glycol]: the IC50 result in the series on WM164 [1], with WM1366 [2] and in the series on HaCaT [3] was “>Max Conc” each time.
Consider `O=C([O-])c1c(Cl)c(Cl)c(Cl)c(Cl)c1-c1c2cc(I)c(=O)c(I)c-2oc2c(I)c([O-])c(I)cc12.[Na+].[Na+]` [RB, 4,5,6,7-tetrachloro-2, 4′, 5′, 7--tetraiodofluorescein disodium salt], for which the “Apoptotic Cells % (Sub G0G1)” value in the series with WM164 [4] is given as 6.69%; in the series on WM1366 [5] it was 2.29%; in the series on D24 [6], 2.66%; in the series on HaCaT [7], 1.15%; in the series with Fibroblast, 0.99%. Moreover, the “log P” value in series [8] was 7.6. Also, the IC50 with WM164 [9] (RB and encapsulated RB, WM164, 48 h incubation, concentration of RB, mean (95% CI), n = minimum of 4, vehicle concentration constant) is 103 µM; with WM164 [9] (RB aqueous solution, WM164, 24 h), 112 µM; in the series with WM164 [9] (RB aqueous solution, WM164, 48 h (Table 2)) it was 107 µM; in the series with WM164 [9] (RB aqueous solution, WM164, 72 h), 109 µM; in [10] (RB and encapsulated RB, 48 h incubation, concentration of RB, mean (95% CI), n = minimum of 4) it was 188 µM; in series [10] (RB aqueous solution, 24 h), 238 µM. Also, the IC50 was 459 µM in [10] (RB aqueous solution, 48 h (Table 2)); 108 µM in series [10] (RB aqueous solution, 72 h); 98.9 µM with WM1366 [11] (RB and encapsulated RB, WM1366, 48 h incubation, concentration of RB, mean (95% CI), n = minimum of 4, read-out: IC50); “>Max Conc” in the series with WM1366 [11] (RB aqueous solution, WM1366, 24 h); 110 µM in the series with WM1366 [11] (RB aqueous solution, WM1366, 48 h (Table 2), read-out: IC50); around 114 µM in the series with WM1366 [11] (RB aqueous solution, WM1366, 72 h, read-out: IC50). For the same compound, the IC50 in the series with D24 [12] (RB and encapsulated RB, D24, 48 h incubation, concentration of RB, mean (95% CI), n = minimum of 4) was 45.6 µM; in the series on D24 [12] (RB aqueous solution, D24, 24 h) it was 131 µM; in the series with D24 [12] (RB aqueous solution, D24, 48 h (Table 2)), 70 µM; in the series on D24 [12] (RB aqueous solution, D24, 72 h) it was 27.3 µM; in the series with HaCaT [13] (RB and encapsulated RB, 48 h incubation, concentration of RB, mean (95% CI), n = minimum of 4, read-out: IC50) it was 153 µM; with HaCaT [13] (RB aqueous solution, 24 h, read-out: IC50), 2250 µM. The IC50 with HaCaT [13] (RB aqueous solution, 48 h (Table 2), read-out: IC50) was 221 µM; in the series on HaCaT [13] (RB aqueous solution, 72 h) it was “>Max Conc”.
Regarding `CCOCCOCCO` [Transcutol®, diethylene glycol monoethyl ether], the IC50 is ~5.6 (very wide) v/v % in the series on WM164 [1]; “>Max Conc” in series [14]; “>Max Conc” in the series on WM1366 [2]; 4.55 (3.1-8.2) v/v % in the series on D24 [15]; 5.75 (very wide) v/v % in the series on HaCaT [3]. The “IC50, range over all the cell lines” value in series [16] is reported as ≥ 4.55 v/v (%).

Usually log P stands for a log measure of how a compound divides between an organic and an aqueous phase.
